Test results: US8389012B2, “Gellan-gum nanoparticles and methods of making and using the same” (The Corporation of Mercer University, priority 2008, dated 2013)
Read-outs that look alike come from different tables or passages of the source.

Tests used:
[1] = system: PC-3 tumors; experiment: Histological analysis of excised tumor (H & E); assay type: in vivo, mice; settings: day 60 post treatment
Procedure: Selected tumors from each group were harvested and fixed in 10% neutral buffered formalin. Tumors were paraffin embedded, sectioned, placed on polylysine slides, and stained with Hematoxylin & Eosin (H & E) to visualize morphological changes in the tumors in both the treated and control groups. Images were recorded using a light microscope equipped with camera.

[2] = system: PC-3 cells; experiment: MTT cytotoxicity assay, PC-3; assay type: cell-based, human; settings: PC-3, 10, 30, 120 minutes treatment, then 72 h
Procedure: To investigate the cytotoxicity of Ptx-GGbPEG-Apt nanoparticles on human prostate cancer cells, mitochondrial dehydrogenase assay (MTT) was employed. PC-3 or DU-145 cells (5×10^3) were seeded in 96-well plates containing 100 μl of RPMI medium 1640 (American Type Culture Collection), supplemented with 100 units/ml aqueous penicillin G, 100 μg/ml streptomycin, and 10% FBS. Cells were then allowed to adhere overnight prior to treatment. On the day of experiment, cells were washed twice with PBS and then exposed to similar concentrations (25 μg/ml) of Ptx in either the encapsulated or free formulations. The control cells received 1% (v/v) DMSO or drug free GGbPEG nanoparticles (1.0 μg/ml). Cells were incubated with drug formulations for different time points (10, 30, 120 mins) followed by washing with PBS and replacing treatment medium with fresh medium in the plates. Cells were further incubated for 72 h. […] The optical densities (OD) of the resulting solutions were determined at 490 nm using a microplate reader (Packard Instruments, Meriden, Conn.) and cell viability (%) was calculated by comparing the OD of the treatment group relative to that of the untreated control group (100%).

[3] = system: DU-145 cells; experiment: MTT cytotoxicity assay, DU-145; assay type: cell-based, human; settings: then 72 h; for viability at 25 µg/mL: Homo sapiens, DU-145, DU-145, 25 μg/ml Ptx, read-out: cell viability
Procedure: To investigate the cytotoxicity of Ptx-GGbPEG-Apt nanoparticles on human prostate cancer cells, mitochondrial dehydrogenase assay (MTT) was employed. PC-3 or DU-145 cells (5×10^3) were seeded in 96-well plates containing 100 μl of RPMI medium 1640 (American Type Culture Collection), supplemented with 100 units/ml aqueous penicillin G, 100 μg/ml streptomycin, and 10% FBS. Cells were then allowed to adhere overnight prior to treatment. On the day of experiment, cells were washed twice with PBS and then exposed to similar concentrations (25 μg/ml) of Ptx in either the encapsulated or free formulations. The control cells received 1% (v/v) DMSO or drug free GGbPEG nanoparticles (1.0 μg/ml). Cells were incubated with drug formulations for different time points (10, 30, 120 mins) followed by washing with PBS and replacing treatment medium with fresh medium in the plates. Cells were further incubated for 72 h. At the end of treatment period, medium was removed and replaced with 100 μl of complete culture medium and 10 μl of MTT (5 mg/ml) in each well and the plates were incubated at 37° C. in a humidified, 5% CO2 atmosphere for 3 h. The resulting formazan crystals were solubilized with 100 μl of the stop solution (0.1N HCl in isopropanol). The optical densities (OD) of the resulting solutions were determined at 490 nm using a microplate reader (Packard Instruments, Meriden, Conn.) and cell viability (%) was calculated by comparing the OD of the treatment group relative to that of the untreated control group (100%).

[4] = i.v.; cited from earlier work
[5] = system: PC-3 tumors; experiment: In vivo efficacy in athymic nude mice bearing human xenograft prostate cancer tumor; settings: single i.v. injection, 60 days
Procedure: For in vivo efficacy study, athymic nude mice bearing human prostate tumor (−150 mm^3) were divided into five groups of four mice, minimizing, weight and tumor size differences. […] Human xenograft prostate cancer tumors were induced in 6-week old athymic nude mice (NCI Frederick, Md., USA). Mice were injected subcutaneously in the right flank with 2.5×10^6 PC-3 cells suspended in a 1:1 mixture of serum-free media and matrigel (BD Biosciences, Franklin Lakes, N.J., USA). Prior to use in tumor induction, PC-3 cells were cultured in RPMI-1640 medium supplemented with 10% fetal bovine serum, 100 units/ml penicillin G, and 100 mg/ml streptomycin. Tumor targeting studies were carried out after the mice developed ˜150 mm^3 tumors. […] After dosing, the mice were monitored for weight and implanted tumor size daily for sixty days. The length and width of the tumors were measured by digital calipers and tumor volume was calculated by the following formula: (width^2×length)/2 [17]. […]
To evaluate the in vivo efficacy of Ptx-GGbPEG-Apt copolymeric nanoparticles, PC-3 cells were injected subcutaneously in the flanks of athymic nude mice as described above. […] The tumor size and body weight were then monitored for 60 days.

Question: Which results are given for `CC(=O)O[C@H]1C(=O)[C@@]2(C)[C@H]([C@H](OC(=O)c3ccccc3)[C@]3(O)C[C@H](OC(=O)[C@H](O)[C@@H](NC(=O)c4ccccc4)c4ccccc4)C(C)=C1C3(C)C)[C@]1(OC(C)=O)CO[C@@H]1C[C@@H]2O` [Ptx, Paclitaxel]?
Answer: histological examination of tumors by H & E staining [1]: extensively necrotic; cytotoxic effect [2]: time-dependent cytotoxicity; cytotoxic effect ([3]; DU-145, 10, 30, 120 minutes treatment): time-dependent cytotoxicity; viability at 25 µg/mL ([3]; treated 30 minutes): 50%; viability at 25 µg/mL ([3]; treated 120 min): 35%; maximal tolerated dose (MTD) [4]: 40 mg/kg; efficacy in tumor reduction (comparison of groups) [5]: does not show any significant long-term efficacy
